Results reported in patent publication US7662644B2, “Labeled peptides, proteins and antibodies and processes and intermediates useful for their preparation” (priority 2000, dated 2010).

Tests used:
[1] = Spectral data for selected merocyanine dyes (absorbance and fluorescence spectra); type: physicochemical; set-up: Absorption Maximum / Emission Maximum: unit not given here; details: in n-butanol
Protocol: Absorbance spectra were recorded on Hewlett-Packard HP8452 diode array spectrophotometer and fluorescence spectra were recorded on SPEX Fluorolog 2 spectrometer.

Rac = biological target: T1, Rac (Homo sapiens, UniProt P63000); details: literature value; read-out: previously reported GTPγS dissociation constant; cited from earlier work
T1 construct: ECFP or EYFP (fusion partner)

GFP-Rac1 = biological target: T2, GFP-Rac1 (Homo sapiens, UniProt P63000); assay: In vitro FRET titration of Alexa-PBD with GFP-Rac1; type: binding; details: at saturating Alexa-PBD; read-out: apparent GTPγS dissociation constant
T2 construct: 6His; made in house; host or cells: E. coli BL21DE3 (stated for PBD; 'similar procedure' for GFP-Rac1)
Protocol: FRET between Alexa-PBD and GFP-Rac1 was efficient and dependent on GTP-Rac 1 binding. […] Purified GFP-Rac1 (200 nM) was bound to varying concentrations of […] or GDP at low magnesium by 30 min incubation at 30° C. as described previously (U. G. Knaus et al., J. Biol. Chem. 267, 23575-23582 (1992)), using the following nucleotide equilibration buffer: 50 mM Tris HCl (pH 7.6), 50 mM NaCl, 5 mM MgCl2, 10 mM EDTA, and 1 mM DTT. […] Spectra were corrected for dilution upon Alexa-PBD addition. Alexa-PBD concentrations were either varied as shown, or maintained at 1 micromolar when saturating Alexa-PBD was required. The spectra shown were corrected for direct excitation of the Alexa fluorophore by acquiring spectra of Alexa-PBD alone at equivalent concentrations, and subtracting these from spectra shown in FIG. 7. Kd were determined by fitting to the equation: Y=A*X/(Kd+X). In the FIG. 7, panel A inset, only points actually used in the curve fitting are shown. Higher, saturating concentrations of AlexaPBD were not used because errors from subtraction of direct Alexa excitation became larger. […] The apparent GTPγS dissociation constant was determined at saturating Alexa-PBD by fitting the experimental data to the Michaelis equation (FIG. 7b). […]

RhoA = biological target: T3, RhoA (Homo sapiens, UniProt P61586); assay: Fluorescence of mero-CBD in presence of RhoA-GTPγS; type: binding; details: RhoA-GTPγS present
T3 construct: 6His; made in house; host or cells: E. coli BL21DE3 (by 'analogous procedures')
Protocol: (§1) Analyses of the solvatochromic activation indicator—A solution of mero-CBD (300 nM) in assay buffer was mixed 1:1 (v/v) with solutions of cdc42 (concentration as indicated), pre-equilibrated with 10 mM GDP or GTPγS as described in Knaus, U. G., Heyworth, P. G., Kinsella, B. T., Cumutte, J. T., and Bokoch, G. M. (1992) J. Biol. Chem. 267, 23575-23582. Emission wavelength of 630 nm and excitation wavelength of 600 nm were used to acquire excitation and emission spectra, respectively. For nucleotide dependence, cdc42 (500 nM) was pre-incubated with varying concentrations of GTPγS (1 to 500 nM). Rac1 and RhoA GTPases were pre-equilibrated with GTPγS in the same manner.
(§2) Fluorescence increase as a measure of CBD-cdc42 interaction—The functionality and specificity of mero-CBD was characterized by measuring fluorescence in the presence of saturating amounts of cdc42-GDP or cdc42-GTPγS. […] Negligible increase (<5%) was also observed in the presence of activated Rac1. No effect on the mero-CBD fluorescence was observed when RhoA-GTPγS was present. Furthermore, even in the presence of excess of activated Rac1 and RhoA, GDP- and GTPγS-bound forms of cdc42 were easily distinguished by CBD-A4C fluorescence (data not shown).

Rac1 = biological target: T4, Rac1 (Homo sapiens, UniProt P63000); assay: Fluorescence of mero-CBD in presence of activated Rac1; type: binding; details: Rac1 pre-equilibrated with GTPγS
T4 construct: 6His; made in house; host or cells: E. coli BL21DE3 (by 'analogous procedures')
Protocol: as §1, §2

[2] = Storage of labeled CBD aliquots; type: physicochemical; details: aliquots 15 to 50 μM stored at −80° C. for 6 months
Protocol: Conjugation of CBD with fluorescent dyes—Dialyzed CBD samples (100-150 μM) were gently inverted with 6 to 7-fold molar excess of the reactive dye at 25° C. for 3 to 4 hours. The reaction was stopped by addition of 10 mM dithiothreitol (DTT), and the mixture was incubated for 15 min. Unreacted dye was separated from the labeled protein using […] (Pharmacia) gel filtration column equilibrated and developed with 25 mM Na2HPO4 (pH 7.5). Purity of the eluting fractions was analyzed by running an aliquot on an SDS gel and visualizing the fluorescence. Only the fractions containing minimal amounts of free dye were used in the subsequent experiments. Dye-to-protein ratio was determined by measuring CBD concentration (ε^280=8,250 M^−1), and A4C concentration at 617 nm (ε=70,000 M^−1 in dimethylsulfoxide) or Alexa546 at 554 nm (ε=104,000 M^−1 in 50 mM potassium phosphate, pH 7.0). Concentrations of CBD were independently confirmed by Coomassie Plus assay (Pierce) calibrated with bovine serum albumin as a standard. Dye-to-protein ratios thus obtained varied between 0.8 and 1.2, 1.7 and 2.1 for the single-dye and dual-dye conjugates, respectively. Aliquots of the labeled CBD (15 to 50 μM) were stored at −80° C. […] In this example, CBD-conjugates were made with the dye shown in FIG. 11, and are referred to as mero-CBD (for merocyanines dye conjugated to CBD).

cdc42 = biological target: T5, cdc42 (Homo sapiens, UniProt P60953); assay: Fluorescence of mero-CBD on binding cdc42; details: for increase of fluorescence on binding activated cdc42 (cdc42-GTPγS): saturating cdc42-GTPγS
T5 construct: 6His; made in house; host or cells: E. coli BL21DE3 (stated for CBD; 'analogous procedures' for cdc42)
Protocol: as §1, §2

T5 sequence (P60953 whole entry, species assumed): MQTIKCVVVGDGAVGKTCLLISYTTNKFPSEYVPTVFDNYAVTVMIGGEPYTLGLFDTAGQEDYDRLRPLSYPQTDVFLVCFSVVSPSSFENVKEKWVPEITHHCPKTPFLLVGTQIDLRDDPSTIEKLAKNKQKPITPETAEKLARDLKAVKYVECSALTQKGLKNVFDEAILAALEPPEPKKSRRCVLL
T3 sequence (P61586 whole entry, species assumed): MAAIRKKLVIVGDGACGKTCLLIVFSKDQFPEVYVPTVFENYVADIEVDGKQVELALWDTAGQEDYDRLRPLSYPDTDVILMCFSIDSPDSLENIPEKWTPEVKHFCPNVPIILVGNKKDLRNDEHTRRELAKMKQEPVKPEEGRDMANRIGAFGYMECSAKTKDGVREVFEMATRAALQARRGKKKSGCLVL

Row | Molecule | Absorption Maximum [1] | Emission Maximum [1] | Extinction coefficient (*10^−3) [1] | Quantum Yield [1] | also measured
1 | CC1(C)/C(=C/C=C/C=C2/C(=O)c3ccccc3S2(=O)=O)N(CCCS(=O)(=O)[O-])c2ccccc21.[Na+] [Compound 3] | 586 | 618 | 120 | 0.17 | 
2 | CC1(C)/C(=C/C=C/C=C2/C(=O)c3ccccc3C2=C(C#N)C#N)N(CCCS(=O)(=O)[O-])c2ccccc21.[Na+] [Compound 4] | 667 | 693 | 80 | 0.10 | 
3 | Nc1nc2c(ncn2[C@@H]2O[C@H](COP(=O)(O)OP(=O)(O)OP(O)(O)=S)[C@@H](O)[C@H]2O)c(=O)[nH]1 [GTPγS] |  |  |  |  | Kd (Rac): 50 nM; Kd (GFP-Rac1): 47 ± 9 nM
4 | mero-CBD: cdc42 binding domain of WASP conjugated to the merocyanine dye shown in FIG. 11 (conjugate, left off: small tags and cut ends) DIQNPDITSSRYRGLPAPGPSPADKKRSGKKKISKADIGAPSGFKHVSHVGWDPQNGFDVNNLDPDLRSLCSRAGISEAQLTDAETSKLIYDFIEDQGGLEAVRQEMRRQEPLPPPPPPSR |  |  |  |  | effect of RhoA-GTPγS on fluorescence (RhoA): No effect; increase of fluorescence in the presence of activated Rac1 (Rac1): < 5%; loss of binding ability on storage [2]: No significant loss of binding ability; increase of fluorescence with cdc42-GDP (cdc42; saturating cdc42-GDP): but not cdc42-GDP; increase of fluorescence on binding activated cdc42 (cdc42-GTPγS) (cdc42): Approximately 3.5 fold; increase of fluorescence on binding activated cdc42 (cdc42-GTPγS) (cdc42; listed as CBD biosensor): up to 3.5 fold
